Source: ChEMBL document CHEMBL2396635, “Design, synthesis, and DNA binding characteristics of a group of orthogonally positioned diamino, N-formamido, pyrrole- and imidazole-containing polyamides” (Bioorg Med Chem, 2013)
Activity calls are given as the source filed them. No cut-off for these calls is given here.

How the values were obtained:
[1] = Binding affinity to 5'-AAATTT-3' of hairpin DNA (unknown origin) in cacodylic acid buffer at pH 6.5 at 25 degC by SPR analysis
Nucleic Acid [2] = test: Binding affinity to 5'-AAATTT-3' of hairpin DNA (unknown origin) in cacodylic acid buffer at pH 6.5 assessed as change in melting temperature at 3 uM by thermal denaturation assay; format: nucleic-acid assay
[3] = Binding affinity to 5'-AAATTT-3' of DNA fragment (unknown origin) in Tris buffer at pH 7 at 30 uM by DNA footprinting
[4] = Binding affinity to 5'-AAATTT-3' of DNA fragment (unknown origin) in Tris buffer at pH 7 at 20 uM by DNA footprinting
[5] = Binding affinity to 5'-AAATTT-3' DNA (unknown origin) at 80 uM at 25 degC by ITC method
[6] = Binding affinity to 5'-AAATTT-3' of hairpin DNA (unknown origin) in 10 mM phosphate buffer at pH 6.2 at 1 mol equivalent of compound by CD titration method
Nucleic Acid [7] = test: Binding affinity to 5'-ATCGAT-3' of hairpin DNA (unknown origin) in cacodylic acid buffer at pH 6.5 assessed as change in melting temperature at 3 uM by thermal denaturation assay; format: nucleic-acid assay
Nucleic Acid [8] = test: Binding affinity to 5'-ACGCGT-3' of hairpin DNA (unknown origin) in cacodylic acid buffer at pH 6.5 assessed as change in melting temperature at 3 uM by thermal denaturation assay; format: nucleic-acid assay
[9] = Binding affinity to 5'-ACGCGT-3' of 11 bp hairpin DNA oligonucleotide (unknown origin) in cacodylic acid buffer at pH 6.5 at 25 degC by SPR analysis
[10] = Binding affinity to 5'-ATCGAT-3' of 11 bp hairpin DNA oligonucleotide (unknown origin) in cacodylic acid buffer at pH 6.5 at 25 degC by SPR analysis
[11] = Binding affinity to 5'-ATGCAT-3' DNA (unknown origin) at 80 uM at 25 degC by ITC method
Nucleic Acid [12] = test: Binding affinity to 5'-ATGCAT-3' of hairpin DNA (unknown origin) in cacodylic acid buffer at pH 6.5 assessed as change in melting temperature at 3 uM by thermal denaturation assay; format: nucleic-acid assay
[13] = Binding affinity to 5'-ATGCAT-3' of 11 bp hairpin DNA oligonucleotide (unknown origin) in cacodylic acid buffer at pH 6.5 at 25 degC by SPR analysis
[14] = Binding affinity to 5'-ATCGAT-3' of hairpin DNA (unknown origin) in 10 mM phosphate buffer at pH 6.2 at 1 mol equivalent of compound by CD titration method
[15] = Binding affinity to 5'-ATCGAT-3' of hairpin DNA (unknown origin) in cacodylic acid buffer at pH 6.5 at 25 degC by SPR analysis
[16] = Selectivity for 5'-TACGAT-3' of topoisomerase 2alpha promoter (unknown origin) over 5'-CTGCTTC-3' of topoisomerase 2alpha promoter (unknown origin)
[17] = Binding affinity to 5'-ATCGAT-3' DNA (unknown origin) at 80 uM at 25 degC by ITC method
[18] = Binding affinity to 5'-CTGCTTC-3' of topoisomerase 2alpha promoter (unknown origin) in Tris buffer at pH 7 at 30 uM by DNA footprinting
[19] = Binding affinity to 5'-TACGAT-3' of topoisomerase 2alpha promoter (unknown origin) in Tris buffer at pH 7 at 10 uM by DNA footprinting
[20] = Binding affinity to 5'-ATGCAT-3' of hairpin DNA (unknown origin) in cacodylic acid buffer at pH 6.5 at 25 degC by SPR analysis
[21] = Binding affinity to 5'-ACGCGT-3' DNA (unknown origin) at 80 uM at 25 degC by ITC method
[22] = Binding affinity to 5'-ACGCGT-3' of DNA fragment (unknown origin) in Tris buffer at pH 7 at 0.05 uM by DNA footprinting
[23] = Binding affinity to 5'-ACGCGT-3' of hairpin DNA (unknown origin) in cacodylic acid buffer at pH 6.5 at 25 degC by SPR analysis
[24] = Binding affinity to 5'-ACGCGT-3' of hairpin DNA (unknown origin) in 10 mM phosphate buffer at pH 6.2 at 1 mol equivalent of compound by CD titration method
[25] = Binding affinity to 5'-ATGCAT-3' of DNA fragment (unknown origin) in Tris buffer at pH 7 at 1 uM by DNA footprinting
[26] = Binding affinity to 5'-ACTAGT-3' of DNA fragment (unknown origin) in Tris buffer at pH 7 at 1 uM by DNA footprinting
[27] = Binding affinity to 5'-ACGCGT-3' of DNA fragment (unknown origin) in Tris buffer at pH 7 at 1 uM by DNA footprinting
[28] = Binding affinity to 5'-ATGCAT-3' of hairpin DNA (unknown origin) in 10 mM phosphate buffer at pH 6.2 at 1 mol equivalent of compound by CD titration method
[29] = Binding affinity to 5'-AAATTT-3' of 11 bp hairpin DNA oligonucleotide (unknown origin) in cacodylic acid buffer at pH 6.5 at 25 degC by SPR analysis

CN(C)CCCNC(=O)c1cc(NC(=O)c2cc(NC(=O)c3cc(NC=O)cn3C)cn2CCCN)cn1C
Ke [1]: 4.8 ×10⁷ /M
ΔTm (Nucleic Acid [2]): 25 °C
Activity [3]: Active
Activity [4]: Active
Activity [5]: Active
Activity [6]: Active
ΔTm (Nucleic Acid [7]): 10 °C
ΔTm (Nucleic Acid [8]): 0 °C

CN(C)CCCNC(=O)c1cc(NC(=O)c2cc(NC(=O)c3nc(NC=O)cn3C)cn2C)cn1C
Ke [9]: 8.8 ×10⁴ /M
Ke [10]: 9.4 ×10⁴ /M
Activity [11]: Active
ΔTm (Nucleic Acid [12]): 11 °C
ΔTm (Nucleic Acid [7]): 3 °C
Ke [13]: 1.2 ×10⁷ /M
ΔTm (Nucleic Acid [8]): 2 °C

CN(C)CCCNC(=O)c1cc(NC(=O)c2nc(NC(=O)c3cc(NC=O)cn3CCCN)cn2C)cn1C
Activity [14]: Active
Ke [15]: < 1 ×10⁵ /M
ΔTm (Nucleic Acid [2]): 10 °C
Selectivity ratio [16]: 3
Activity [17]: Active
ΔTm (Nucleic Acid [7]): 0 °C
Activity [18]: Active
ΔTm (Nucleic Acid [8]): 0 °C
Activity [19]: Active

CN(C)CCNC(=O)c1nc(NC(=O)c2cc(NC(=O)c3nc(NC=O)cn3C)cn2CCCN)cn1C
Ke [20]: 3.5 ×10⁷ /M
Ke [15]: 1.7 ×10⁶ /M
ΔTm (Nucleic Acid [2]): 10 °C
Activity [21]: Active
Activity [22]: Active
Ke [23]: 2.4 ×10⁸ /M
ΔTm (Nucleic Acid [12]): 24 °C
ΔTm (Nucleic Acid [7]): 11 °C
ΔTm (Nucleic Acid [8]): > 24 °C
Activity [24]: Active

CN(C)CCNC(=O)c1nc(NC(=O)c2cc(NC(=O)c3nc(NC=O)cn3C)cn2C)cn1C
Ke [1]: 5.3 ×10⁴ /M
ΔTm (Nucleic Acid [2]): 1 °C
Ke [10]: 1 ×10⁵ /M
Activity [21]: Active
Ke [23]: 5.4 ×10⁷ /M
ΔTm (Nucleic Acid [12]): 9 °C
ΔTm (Nucleic Acid [7]): 1 °C
Ke [13]: 1.2 ×10⁷ /M
ΔTm (Nucleic Acid [8]): 9 °C

CN(C)CCCNC(=O)c1cc(NC(=O)c2nc(NC(=O)c3cc(NC=O)cn3C)cn2C)cn1C
Ke [15]: 2 ×10⁵ /M
Selectivity ratio [16]: 3
Activity [17]: Active
ΔTm (Nucleic Acid [7]): 0 °C
Activity [18]: Active
ΔTm (Nucleic Acid [8]): 3 °C
Activity [19]: Active

CN(C)CCCNC(=O)c1cc(NC(=O)c2cc(NC(=O)c3nc(NC=O)cn3C)cn2CCCN)cn1C
Ke [20]: 1.3 ×10⁸ /M
Ke [15]: 2.7 ×10⁶ /M
Activity [25]: Active
Activity [26]: Active
ΔTm (Nucleic Acid [2]): 0 °C
Activity [11]: Active
Activity [27]: Active
Ke [23]: 2.3 ×10⁶ /M
ΔTm (Nucleic Acid [12]): 26 °C
ΔTm (Nucleic Acid [7]): 7 °C
Activity [28]: Active
ΔTm (Nucleic Acid [8]): 0 °C

CN(C)CCCNC(=O)c1cc(NC(=O)c2cc(NC(=O)c3cc(NC=O)cn3C)cn2C)cn1C
ΔTm (Nucleic Acid [2]): 9 °C
Activity [4]: Active
Activity [5]: Active
Ke [29]: 3.2 ×10⁶ /M
ΔTm (Nucleic Acid [7]): 1 °C
